Test results reported in patent publication US20080227806A1, “Novel Drugs for Dementia” (AMERICAN LIFE SCIENCE PHARMACEUTICALS, priority 2005, published 2008).
Several values for one entry are separate records, joined by “and”; a condition that tells them apart may be missing. Identical values can stand only once.

Assays:
hippocampus neurons = settings: primate ischemic animal model; cited from earlier work
total Aβ (Ab40 and Ab42) = experiment: Brain total Aβ by ELISA after icv infusion into guinea pig brains; assay type: in vivo; settings: constant icv infusion, 1 mg/ml
Excerpt: (§1) In vivo icv administration of protease inhibitors into guinea pig brains. Guinea pigs (Harley strain, 300-500 grams) were obtained from Charles River (Wilmington, Mass.). The animals were given free access to food and water before and during the experiment. An ALZET osmotic mini-pump (ALZET company, Cupertino, Calif.) was implanted subcutaneously in the mid-scapular area of the back of each animal. A catheter was connected to the osmotic mini-pump and inserted into the lateral ventricle of the brain (using a brain infusion kit manufactured by ALZET).
(§2) E64d or CA074Me (from CalBiochem, San Diego, Calif.) were each administered to guinea pig brains by icv minipump infusion at a rate of […] with each compound at 1 mg/ml in saline (with 1.5% DMSO). Each e64d and control group consisted of five animals; each CA074Me and control group consisted of ten animals. Continuous infusion was conducted for 7 days and 30 days. At the end of each infusion period, animals were sacrificed and half the brain was prepared as extracts for ELISA measurement of Aβ peptide levels conducted in triplicate with Ab ELISAs (from Biosource International). The other half brain was used for isolation of synaptosome preparations and Ab analyses.
(§3) Brain Extracts. Brain extracts were prepared by subjecting fresh tissues to homogenization at 1:10 w/v in guanidine buffer consisting of 5 M guanidine-HCl in 50 mM Tris-HCl, pH 8.3 (buffer reagents from Sigma-Aldrich, St. Louis, Mo.). Homogenates were agitated at room temperature for 3-4 hours, then stored at −20° C. The day before the ELISA assay, the tissue samples were diluted further by 1:10 for a final guanidine concentration of 0.5 M. These diluted homogenates were then centrifuged at 14,000 rpm for 20 minutes at 4° C. and supernatants were collected for measurement of total Ab, and Aβ40 and Aβ42 separately, by ELISA assay. Isolation of synaptosomes from brain. Synaptosomes were prepared by homogenization of fresh brain tissue in isotonic sucrose (320 mM), pH 7.4, 1 mM EDTA, 0.25 mM dithiothreitol, and 30 U/ml RNAse inhibitor. […] For quantitation of Aβ peptides, ELISA assays were used to measure Aβ levels. […] CTFβ fragments derived from APP were analyzed by western blots with antibody MAB 1560 (Chemicon, Temecula, Calif.). The sAPPα fragment derived from APP was analyzed by western blots with antibody MAB 343 (Chemicon, Temecula, Calif.). […]
(§4) Data Analyses. Data were analyzed by one-way analysis of variance for analyses of statistical significance of the effects of compounds on Ab levels, with p<0.05 indicating statistical significance, using GraphPad Prism software program. Following ANOVA analyses among treatment groups, individual group values for Ab levels were analyzed using Dunnett's multiple comparison test. […]

Aβ40 = experiment: Brain Aβ40 by specific ELISA after icv infusion; assay type: in vivo; settings: guinea pig, 7 days
Excerpt: as §1, with “ALZET). […]” for “ALZET).”
(§5) Brain Extracts. […] For quantitation of Aβ peptides, ELISA assays were used to measure Aβ levels. […] CTFβ fragments derived from APP were analyzed by western blots with antibody MAB 1560 (Chemicon, Temecula, Calif.). The sAPPα fragment derived from APP was analyzed by western blots with antibody MAB 343 (Chemicon, Temecula, Calif.). […]
as §4

Aβ42 = experiment: Brain Aβ42 by specific ELISA after icv infusion; assay type: in vivo; settings: guinea pig, 7 days
Excerpt: as §1, with “ALZET). […]” for “ALZET).”
as §5, §4

synaptosome Aβ = experiment: Synaptosome total Aβ by ELISA after icv infusion; assay type: in vivo; settings: guinea pig
Excerpt: as §1, §2, §3, §4

CTFβ = experiment: Brain CTFβ by western blot densitometry after icv infusion; assay type: in vivo; settings: guinea pig, 7 days, densitometric scanning of western blots
Excerpt: as §1, with “ALZET). […]” for “ALZET).”
as §5, §4

sAPPα = experiment: Brain sAPPα by western blot densitometry after icv infusion; assay type: in vivo; settings: guinea pig, 7 days, densitometric scanning of western blots
Excerpt: as §1, with “ALZET). […]” for “ALZET).”
as §5, §4

[1] = rats, high dose; cited from earlier work
[2] = Japan; cited from earlier work
[3] = Phase III study; cited from earlier work

Compound | protection of brain neurons during ischemia (hippocampus neurons) | reduction of brain total Aβ relative to control (total Aβ (Ab40 and Ab42); 7 days) [%] | reduction of brain total Aβ relative to control (total Aβ (Ab40 and Ab42); 30 days) [%] | reduction of Aβ40 in brain extracts (Aβ40) [%] | reduction of Aβ42 in brain (Aβ42) [%] | reduction of synaptosome Aβ relative to controls (synaptosome Aβ; 7 days) [%] | reduction of synaptosome Aβ relative to controls (synaptosome Aβ; 30 days) [%] | reduction in brain CTFβ relative to controls (CTFβ) | increase in brain sAPPα above control (sAPPα) [%] | liver toxicity [1] | Phase I clinical trial outcome [2] | efficacy for muscular dystrophy [3]
CCCNC(=O)C1OC1C(=O)NC(C(=O)N1CCCC1C(=O)O)C(C)CC (centres unmarked) [CA074, 1-{3-methyl-2-[(3-propylcarbamoyl-oxiranecarbonyl)-amino]-pentanoyl}-pyrrolidine-2-carboxylic acid] | protect hippocampus neurons from damage |  |  |  |  |  |  |  |  |  |  | 
CCCNC(=O)[C@H]1O[C@@H]1C(=O)N[C@H](C(=O)N1CCC[C@H]1C(=O)OC)[C@@H](C)CC [CA074Me, L-Proline, N[[(2S,3S)3[(propylamino)carbonyl]oxiranyl]carbonyl]-L-isoleucyl-, methyl ester] |  | 57 | 62 | 47 | 56 | 62 | 74 | 45% and 44% | 60 |  |  | 
CCOC(=O)[C@H]1O[C@@H]1C(=O)N[C@@H](CC(C)C)C(=O)NCCC(C)C [E64d, oxiranecarboxylic acid, 3-[[[(1S)-3-methyl-1-[[(3-methylbutyl)amino]carbonyl]butyl]amino]carbonyl], ethyl ester] |  | 31 | 55 |  |  | 27 | 50 |  |  | liver toxicity was found | successfully passed Phase I clinical trials | low efficacy for muscular dystrophy
CC(C)CCNC(=O)C(CC(C)C)NC(=O)C1OC1C(=O)O (centres unmarked) [e64c, 3-[3-methyl-1-(3-methyl-butylcarbamoyl)-butylcarbamoyl]-oxirane-2-carboxylic acid] | protect hippocampus neurons from damage |  |  |  |  |  |  |  |  |  |  | 
